# Results as given in patent publication US20230151025A1, “SUBSTITUTED THIAZOLOPYRIDINES, SALTS THEREOF AND THEIR USE AS HERBICIDALLY ACTIVE SUBSTANCES” (Bayer Aktiengesellschaft, priority 2020, published 2023).
# Experiments:
# Format in all cases: in vivo
# [1] = tested on: Amaranthus retroflexus (AMARE); assay: Herbicidal pre-emergence action (A), 1280 g/ha; details: visual grading after ca. 3 weeks vs untreated controls
# Procedure, shortened: (§1)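 Visual percent damage scored about 3 weeks after treatment relative to untreated pots (100% = complete kill, 0% = no effect). Compounds, as wettable powder or emulsifiable concentrate plus 0.5% additive in 600 l water/ha, were applied to the soil surface over freshly sown seeds in sandy loam, greenhouse-grown.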
# [2] = tested on: Kochia scoparia (KCHSC; Bassia scoparia); assay: Herbicidal pre-emergence action (A), 1280 g/ha; details: visual grading after ca. 3 weeks vs untreated controls
# Procedure, shortened: as §1
# [3] = tested on: Lolium rigidum (LOLRI); assay: Herbicidal pre-emergence action (A), 1280 g/ha; details: visual grading after ca. 3 weeks vs untreated controls, 100% = plants have died off, 0% = as control plants
# Procedure, shortened: as §1
# [4] = tested on: Poa annua (POAAN); assay: Herbicidal pre-emergence action (A), 1280 g/ha; details: visual grading after ca. 3 weeks vs untreated controls, 100% = plants have died off, 0% = as control plants
# Procedure, shortened: as §1
# [5] = tested on: Setaria viridis (SETVI); assay: Herbicidal pre-emergence action (A), 1280 g/ha; details: visual grading after ca. 3 weeks vs untreated controls
# Procedure, shortened: as §1
# [6] = tested on: Stellaria media (STEME); assay: Herbicidal pre-emergence action (A), 1280 g/ha; details: visual grading after ca. 3 weeks vs untreated controls
# Procedure, shortened: as §1
# [7] = tested on: Veronica persica (VERPE); assay: Herbicidal pre-emergence action (A), 1280 g/ha; details: visual grading after ca. 3 weeks vs untreated controls
# Procedure, shortened: as §1
# [8] = tested on: Amaranthus retroflexus (AMARE); assay: Herbicidal post-emergence action (B), 1280 g/ha; details: rated visually after about 3 weeks vs untreated controls
# Procedure, shortened: (§2)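 Compounds formulated as wettable powder or emulsion concentrate, with 0.5% additive, sprayed at 600 l/ha onto one-leaf-stage plants grown in sandy loam for 2 to 3 weeks. Damage rated visually against untreated plants roughly 3 weeks later; 0% = like control, 100% = plants died.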
# [9] = tested on: Kochia scoparia (KCHSC; Bassia scoparia); assay: Herbicidal post-emergence action (B), 1280 g/ha
# Procedure, shortened: as §2
# [10] = tested on: Matricaria inodora (MATIN); assay: Herbicidal post-emergence action (B), 1280 g/ha; details: rated visually after about 3 weeks vs untreated controls
# Procedure, shortened: as §2
# [11] = tested on: Poa annua (POAAN); assay: Herbicidal post-emergence action (B), 1280 g/ha; details: rated visually after about 3 weeks vs untreated controls
# Procedure, shortened: as §2
# [12] = tested on: Alopecurus myosuroides (ALOMY); assay: Herbicidal pre-emergence action (A), 1280 g/ha; details: visual grading after ca. 3 weeks vs untreated controls, 100% = plants have died off, 0% = as control plants
# Procedure, shortened: as §1
# [13] = tested on: Digitaria sanguinalis (DIGSA); assay: Herbicidal pre-emergence action (A), 1280 g/ha; details: visual grading after ca. 3 weeks vs untreated controls, 100% = plants have died off, 0% = as control plants
# Procedure, shortened: as §1
# [14] = tested on: Echinochloa crus-galli (ECHCG); assay: Herbicidal pre-emergence action (A), 1280 g/ha; details: visual grading after ca. 3 weeks vs untreated controls, 100% = plants have died off, 0% = as control plants
# Procedure, shortened: as §1
# [15] = tested on: Matricaria inodora (MATIN); assay: Herbicidal pre-emergence action (A), 1280 g/ha; details: visual grading after ca. 3 weeks vs untreated controls
# Procedure, shortened: as §1
# [16] = tested on: Digitaria sanguinalis (DIGSA); assay: Herbicidal post-emergence action (B), 1280 g/ha; details: rated visually after about 3 weeks vs untreated controls
# Procedure, shortened: as §2
# [17] = tested on: Stellaria media (STEME); assay: Herbicidal post-emergence action (B), 1280 g/ha
# Procedure, shortened: as §2
# [18] = tested on: Veronica persica (VERPE); assay: Herbicidal post-emergence action (B), 1280 g/ha
# Procedure, shortened: as §2
# [19] = tested on: Abutilon theophrasti (ABUTH); assay: Herbicidal post-emergence action (B), 1280 g/ha; details: rated visually after about 3 weeks vs untreated controls
# Procedure, shortened: as §2
# [20] = tested on: Veronica persica (VERPE); assay: Herbicidal post-emergence action (D), 320 g/ha; details: ca. 3 weeks
# Source text: (§3) ABUTH: Abutilon theophrasti AGSTE: Agrostis tenuis ALOMY: Alopecurus myosuroides AMARE Amaranthus retroflexus DIGSA: Digitaria sanguinalis ECHCG: Echinochloa crus-galli KCHSC: Kochia scoparia LOLRI: Lolium rigidum MATIN: Matricaria inodora POAAN: Poa annua POLCO: Polygonum convolvulus SETVI: Setaria viridis STEME: Stellaria media VERPE: Veronica persica VIOTR: Viola tricolor
# Seeds of mono- and dicotyledonous weed plants and crop plants were sown, in plastic or organic planting pots, in sandy loam, covered with soil and grown in a greenhouse under controlled growth conditions. 2 to 3 weeks after sowing, the test plants were sprayed in the single-leaf stage. The compounds according to the invention, formulated in form of wettable powders (WP) or as emulsifiable concentrates (EC), were sprayed onto the green plant parts as aqueous suspension or emulsion, with the addition of 0.5% of an additive, at an application rate of 600 l of water/ha (converted). The test plants were placed in the greenhouse for ca. 3 weeks under optimum growth conditions, and then the effect of the preparations was assessed visually in comparison with untreated controls (herbicidal effect in percent (%): 100% effect=plants have died off, 0% effect=as control plants).
# Tables D1 to D13 below show the effects of selected compounds of the general formula (I) according to table 1 on various harmful plants and an application rate corresponding to 320 g/ha obtained by the experimental procedure mentioned above.
# [21] = tested on: Alopecurus myosuroides (ALOMY); assay: Herbicidal post-emergence action (B), 1280 g/ha; details: rated visually after about 3 weeks vs untreated controls
# Procedure, shortened: as §2
# [22] = tested on: Echinochloa crus-galli (ECHCG); assay: Herbicidal post-emergence action (B), 1280 g/ha; details: rated visually after about 3 weeks vs untreated controls
# Procedure, shortened: as §2
# [23] = tested on: Setaria viridis (SETVI); assay: Herbicidal pre-emergence action (C), 320 g/ha; details: ca. 3 weeks
# Source text: as §3
# Seeds of mono- and dicotyledonous weed plants and crop plants were sown, in plastic or organic planting pots, in sandy loam and covered with soil. The compounds according to the invention, formulated in the form of wettable powders (WP) or as emulsifiable concentrates (EC), were applied to the surface of the covering soil as aqueous suspension or emulsion, with the addition of 0.5% of an additive, at an application rate of 600 l of water/ha (converted).
# Following treatment, the pots were placed in a greenhouse and kept under optimum growth conditions for the test plants. The visual grading of the damage to the test plants was carried out after ca. 3 weeks in comparison to untreated controls (herbicidal effect in percent (%): 100% effect=plants have died off, 0% effect=as control plants).
# Tables C1 to C13 below show the effects of selected compounds of the general formula (I) according to table 1 on various harmful plants and an application rate corresponding to 320 g/ha obtained by the experimental procedure mentioned above.
Structure (SMILES),herbicidal effect AMARE [1] [%],herbicidal effect KCHSC [2] [%],"LOLRI, herbicidal effect in percent (%) [3] [%]","POAAN, herbicidal effect in percent (%) [4] [%]",herbicidal effect SETVI [5] [%],herbicidal effect STEME [6] [%],herbicidal effect VERPE [7] [%],herbicidal activity AMARE [8] [%],herbicidal effect KCHSC [9] [%],herbicidal activity MATIN [10] [%],herbicidal activity POAAN [11] [%],"ALOMY, herbicidal effect in percent (%) [12] [%]","DIGSA, herbicidal effect in percent (%) [13] [%]","ECHCG, herbicidal effect in percent (%) [14] [%]",herbicidal effect MATIN [15] [%],herbicidal activity DIGSA [16] [%],herbicidal effect STEME [17] [%],herbicidal effect VERPE [18] [%],other results
Cc1cc2sc(S(C)(=O)=O)nc2nc1-c1ccccc1F [Example I-021],100,90,100,100,100,100,90,90,100,100,100,,,,,,,,
CCc1cc2sc([S+](C)[O-])nc2nc1-c1ccccc1C (centres unmarked) [Example I-022],,,,,,90,,100,90,90,,,,,,,,,
CCc1cc2scnc2nc1-c1ccccc1C(F)(F)F [Example I-049],90,100,100,100,100,100,100,100,100,,100,100,90,100,90,90,90,90,
"Fc1ccc(-c2ccc3scnc3n2)cc1 [Example I-074, 5-(4-fluorophenyl)thiazolo[4,5-b]pyridine]",90,,,100,100,,,90,90,,,,100,100,,100,90,,
Cc1cc2sc([S+](C)[O-])nc2nc1-c1ccccc1 (centres unmarked) [Example I-092],90,,,90,,90,90,100,100,,,,,,,100,,90,herbicidal activity ABUTH [19]: 90%
CCc1cc2scnc2nc1-c1ccccc1OC [Example I-111],90,100,100,100,100,100,90,100,100,,100,90,100,100,90,100,90,90,herbicidal effect VERPE [20]: 80%
CCc1cc2scnc2nc1C1=CCCCC1 [Example I-145],100,90,100,100,100,90,100,100,90,,,100,100,100,90,100,100,100,herbicidal activity ALOMY [21]: 100%; herbicidal activity ECHCG [22]: 100%; herbicidal effect SETVI [23]: 90%
CCc1cc2sc(S)nc2nc1-c1ccccc1C [Example I-158],90,,,,,90,,90,,100,100,,,100,,,,90,
"Cc1cc2sc(S)nc2nc1-c1cccc(F)c1 [Example I-159, 5-(3-fluorophenyl)-6-methyl-thiazolo[4,5-b]pyridine-2-thiol]",,,,,90,,,,90,,,,,,,100,,,herbicidal activity ABUTH [19]: 90%
CCc1cc2sc(S)nc2nc1-c1ccccc1F [Example I-165],90,,,100,100,90,90,,90,,,90,,,,100,,90,
